Data as given in patent US20250361297A1, “ANTI- SIGLEC-15 BINDING MOLECULES AND METHODS OF USE” (ADAPTAM THERAPEUTICS, S.L., priority 2024, published 2025).
Where a SMILES comes first, the peptide text is derived from it. [ ]: non-standard residue; d: D form. The star is where a group is joined. Dolaproine = CO[C@@H]([C@@H]1CCCN1)[C@@H](C)C(=O)O; Dil = CC[C@H](C)[C@H](NC)[C@@H](CC(=O)O)OC; X1 = C[C@@H](N*)[C@@H](O)c1ccccc1; NMeV = CN[C@H](C(=O)O)C(C)C

Tests used:
human macrophages = experiment: Viability of payload-treated human macrophages (Calcein AM / Ethidium Homodimer-1); assay type: cell-based; conditions: free payload; 48-hour incubation; calcein-positive, Ethidium Homodimer-1 negative cells
Method: Macrophage differentiation from CD14+ monocytes: Human peripheral blood mononuclear cells (PBMCs) were isolated from blood donors, who provided informed consent, using density gradient centrifugation. Monocytes were then purified from PBMCs utilizing a CD14 selection kit (Stemcell) according to the manufacturer's instructions. The isolated monocytes were differentiated into macrophages by culturing in RPMI 1640 medium supplemented with 10% FBS and 100 ng/mL macrophage colony-stimulating factor (M-CSF) for 5 days.
Viability assay with Calcein AM: To prepare the viability assay with Calcein AM for flow cytometry, 5 μL of Calcein AM (Component A) and 20 μL of Ethidium Homodimer-1 (Component B) was added to 10 mL of DPBS. Cells were centrifuged at 450×G for 5 minutes to remove the culture medium, and 100-200 μL of the staining solution was added directly to the cells and incubated for 30 minutes at room temperature (20-25° C.). After the incubation, cells were centrifuged at 450×G for 5 minutes to remove the supernatant, and resuspended in 150 μL of DPBS. Cells were analyzed by flow cytometry.

[1] = test system: osteoclast differentiation; experiment: Osteoclast differentiation in vitro (TRACP 5b in culture medium); assay type: cell-based; conditions: relative to baseline levels; culture medium at day 7 (FIG. 46)

Molecule | loss of cell viability of human macrophages (human macrophages) | effect on osteoclast differentiation (TRACP 5b) [1]
CC[C@H](C)[C@@H]([C@@H](CC(=O)N1CCC[C@H]1[C@H](OC)[C@@H](C)C(=O)N[C@H](C)[C@@H](O)c1ccccc1)OC)N(C)C(=O)[C@@H](NC(=O)[C@@H](NC)C(C)C)C(C)C [MMAE, monomethylauristatin E] (H-[NMeV]V[Dil][Dolaproine]-X1) | at a lower concentration than Exatecan | 
denosumab: control that reduced osteoclast differentiation [reference compound] |  | reduced differentiation
